How the values were obtained:
[1] = target: T1, human CB2 receptor (CB2R) (Homo sapiens, UniProt P34972); test: Human CB2 receptor (CB2R) binding inhibition, [3H]CP55940, membranes of CB2R-expressing CHO cells
T1 construct: The coding region of human CB2R cDNA (Munro etc, Nature, 1993, 365, 61-65) was inserted; expressed in transfected cells
Description: (§1) The coding region of human CB2R cDNA (Munro etc, Nature, 1993, 365, 61-65) was inserted into the mammalian expression vector, pSVL SV40 Late Promoter Expression Vector (Amersham Pharmacia Biotech Inc.). The prepared vector was transfected into Chinese Hamster Ovary (CHO) cells with LipofectAMINE reagent (Gibco BRL) according to the manufacture's protocol, and the stable CB2R-expressing clones were selected.
(§2) The crude membrane fractions were prepared from the CB2R-expressing CHO cells. Receptor binding assay was performed by incubating the membranes with each test compound and [^3H]CP55940 (at a final concentration of 0.5 nM: NEN Life Science Products) in the assay buffer (50 mM Tris-HCl, 1 mM EDTA, 3 mM MgCl2, pH 7.4) containing 0.5% bovine serum albumin (BSA) for 2 h at 25° C. The incubation mixture was filtered through 1% polyethylenimine-treated GF/C glass filter and washed with 50 mM Tris-HCl (pH 7.4) containing 0.1% BSA. The radioactivity was then counted with a liquid scintillation counter.
(§3) For the receptor binding assay of human CB1 receptor (CB1R), the stable CB1R-expressing CHO cells were prepared as described above, and the binding assay was performed using their membrane fractions. As a consequence of these studies, the Ki values of each test compound for both cannabinoid receptors were determined, which were presented in Table.

[2] = target: T2, human CB1 receptor (CB1R) (Homo sapiens, UniProt P21554); test: Receptor binding assay of human CB1 receptor (CB1R), membranes of CB1R-expressing CHO cells
T2 construct: expressed in transfected cells
Description: as §1, §2, §3

human CB2R = target: T3, human CB2R (Homo sapiens, UniProt P34972); test: CB2R-mediated suppression of forskolin-stimulated cAMP synthesis in CHO cells expressing human CB2R; format: cell-based
T3 construct: The coding region of human CB2R cDNA (Munro etc, Nature, 1993, 365, 61-65) was inserted; expressed in transfected cells
Description: The CHO cells expressing human CB2R were incubated with test compounds for 15 min. After the incubation, forskolin (final concentration of 4 μM, Sigma) was added and the cells were incubated for 20 min at 37° C. The reaction was stopped by the addition of 1N HCl and the amount of cAMP in the cell supernatant was measured using an EIA kit (Amersham Pharmacia Biotech) according to the manufacture's protocol.
The antagonistic activity of each compound was also evaluated in this assay.

T1 sequence (P34972 whole entry): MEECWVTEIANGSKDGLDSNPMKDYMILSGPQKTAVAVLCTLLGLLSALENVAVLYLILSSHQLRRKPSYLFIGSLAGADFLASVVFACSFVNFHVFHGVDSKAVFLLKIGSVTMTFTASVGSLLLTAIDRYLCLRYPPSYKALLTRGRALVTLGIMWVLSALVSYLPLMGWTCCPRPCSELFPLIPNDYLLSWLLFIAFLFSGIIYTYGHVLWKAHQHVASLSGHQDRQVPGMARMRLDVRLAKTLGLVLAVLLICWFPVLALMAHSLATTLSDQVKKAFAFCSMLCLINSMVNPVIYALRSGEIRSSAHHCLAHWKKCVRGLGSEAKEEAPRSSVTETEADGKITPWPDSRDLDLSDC
T3 sequence (P34972 whole entry): as above
T2 sequence (P21554 whole entry): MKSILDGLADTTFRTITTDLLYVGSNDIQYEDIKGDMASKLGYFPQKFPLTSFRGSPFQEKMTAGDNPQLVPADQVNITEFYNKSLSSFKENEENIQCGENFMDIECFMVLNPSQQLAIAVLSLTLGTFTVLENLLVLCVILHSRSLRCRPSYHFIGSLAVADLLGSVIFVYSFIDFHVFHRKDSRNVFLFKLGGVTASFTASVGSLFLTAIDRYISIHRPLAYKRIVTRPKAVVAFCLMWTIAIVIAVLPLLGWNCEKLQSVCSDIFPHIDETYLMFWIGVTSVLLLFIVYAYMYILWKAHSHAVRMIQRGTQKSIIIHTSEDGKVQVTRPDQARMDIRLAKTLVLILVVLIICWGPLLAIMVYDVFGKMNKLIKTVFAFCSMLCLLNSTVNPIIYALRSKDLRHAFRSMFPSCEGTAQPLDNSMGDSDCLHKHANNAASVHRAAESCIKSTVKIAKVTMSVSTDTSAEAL

| Compound | melting point [°C] | Ki [1] [nM] | Ki [2] [nM] | IC50 (human CB2R) [nM] |
| --- | --- | --- | --- | --- |
| CC(C)OC(=O)CSC(=S)N1CC(C)(C)CSC1=Nc1ccccc1C(C)C [Compound I-13] | 95 to 96 | 6 |  |  |
| CC(C)c1ccccc1N=C1SCC(C)(C)CN1C(=S)SCC(=O)OC(C)(C)C [Compound I-14] |  | 2 | > 5000 |  |
| C=CCSC(=S)N1CC(CC)(CC)CSC1=Nc1ccccc1C(C)C [Compound I-39] |  | 2 | 906 | 13.7 |
| CCOC(=O)CSC(=S)N1CC(CC)(CC)CSC1=Nc1ccccc1C(C)C [Compound I-40] |  | 0.5 |  |  |
| CCC1(CC)CSC(=Nc2ccccc2C(C)C)N(C(=S)SCC(=O)OC(C)C)C1 [Compound I-41] |  | 1 |  |  |
| CCC1(CC)CSC(=Nc2ccccc2C(C)C)N(C(=S)SCC(=O)OC(C)(C)C)C1 [Compound I-42] |  | 0.3 | > 5000 |  |
| CC=CCSC(=S)N1CC(CC)(CC)CSC1=Nc1ccccc1C(C)C [Compound I-44] |  | 1.1 | 321 |  |
| CCC1(CC)CSC(=Nc2ccccc2C(C)C)N(C(=S)SCC=C(C)C)C1 [Compound I-45] |  | 1.2 | 386 |  |
| C=CCCSC(=S)N1CC(CC)(CC)CSC1=Nc1ccccc1C(C)C [Compound I-46] |  | 2 | 3230 | 5.4 |
| C=CCSC(=S)N1CC(CC)(CC)CSC1=Nc1ccccc1C(C)CC (stereo not drawn) [Compound I-49] |  | 2.9 | 1120 | 2.2 |
| C=CCSC(=S)N1CC2(CCCC2)CSC1=Nc1ccccc1C(C)C [Compound I-74] |  | 1.2 | 704 | 1.6 |
| Cc1cc(CSC(=S)N2CC3(CCCC3)CSC2=Nc2ccccc2C(C)C)on1 [Compound I-78] |  |  | 1020 |  |
| COc1ccccc1N=C1SCC2(CCCC2)CN1C(=S)SCC(=O)OC(C)(C)C [Compound I-80] |  | 2.2 | > 5000 |  |
| C=CCSC(=S)N1CC2(CCCCC2)CSC1=Nc1ccc(CC)cc1 [Compound I-88] | 98 to 100 |  |  |  |
| C=CCSC(=S)N1CC2(CCOCC2)CSC1=Nc1ccccc1C(C)C [Compound I-92] | 73.5 to 75 | 6 | 1310 | < 0.2 |
| CSC(=S)N1CC2(CCOCC2)CSC1=Nc1ccccc1C(C)C [Compound I-93] | 127 to 128 | 3 | 1540 | 0.6 |
